Earlier results on 1 molecule are cited in patent publication US8716354B2 (priority 2003, dated 2014).

For this data set the following is noted: intravenous injection of a therapeutic dose.

For `CC(C)c1cccc(C(C)C)c1O` [propofol, 2,6-diisopropylphenol], the “Time to hypnosis from the start of injection” value is at most 40 s.
